Assay results: US20140088144A1, “INHIBITING MICROBIAL INFECTIONS” (THE UNIVERSITY OF KANSAS, priority 2012, published 2014)

How the values were obtained:
Type in all cases: biochemical, E. coli
[1] = target: T1, RhaS-GB1^201b (Escherichia coli, UniProt P09377, L201R); assay: EMSA in vitro DNA binding by RhaS-GB1^201b
T1 construct: solubility-enhancement tag to the C-terminus of full-length RhaS L201R; GB1basic (basic variant of GB1 solubility-enhancement tag) (C); made in house; host or cells: E. coli Acella, pET21-derived plasmid
Description: (§1) All proteins for this study were expressed in E. coli. Untagged CRP was purified by Ni^2+-affinity chromatography as described. Lad protein was purified by ammonium sulfate precipitation and phosphocellulose column chromatography as described. RhaS-GB1^201b and GB1^b-RhaR were purified by Ni^2+-affinity chromatography. Briefly, plasmids derived from pET21 and expressing RhaS-GB1^201b and GB1^b-RhaR were transformed into competent cells of strains Acella™ (MoBiTec, Gottingen, Germany) or ArcticExpress(DE3) (Agilent Technologies, Santa Clara Calif.), respectively. The cells were grown in 1 liter TY plus ampicillin and rhamnose. Gentamycin was also added for GB1^b-RhaR. The cells were grown to OD600 of 0.5, transferred to a 15° C. shaker, 0.1 mM IPTG was added, and then incubated overnight. Cells were harvested by centrifugation and then resuspended in 30 mL of cold binding buffer (20 mM Tris, 500 mM NaCl, 5 mM imidazole, pH 7.9) plus L-rhamnose. […]
(§2) IRD700- and DY682-labeled oligos were from Eurofins MWG Operon. […] EMSA gels were imaged using an Odyssey infrared imager (LI-COR, Lincoln, Nebr.), and quantified using the Odyssey software, version 3.0.30. […] Inhibition values were calculated and graphs were drawn as for in vivo dose-response experiments.

[2] = target: T2, CRP (Escherichia coli, UniProt P0ACJ8); assay: EMSA in vitro DNA binding by CRP; conditions: 1.3 mM compound
T2 construct: made in house; host or cells: E. coli
Description: as §1, §2

[3] = target: T3, LacI (Escherichia coli, UniProt P03023); assay: EMSA in vitro DNA binding by LacI; conditions: highest concentrations (dilutions starting at 650 μM)
T3 construct: made in house; host or cells: E. coli
Description: as §1, §2

T1 sequence (P09377 whole entry L201R): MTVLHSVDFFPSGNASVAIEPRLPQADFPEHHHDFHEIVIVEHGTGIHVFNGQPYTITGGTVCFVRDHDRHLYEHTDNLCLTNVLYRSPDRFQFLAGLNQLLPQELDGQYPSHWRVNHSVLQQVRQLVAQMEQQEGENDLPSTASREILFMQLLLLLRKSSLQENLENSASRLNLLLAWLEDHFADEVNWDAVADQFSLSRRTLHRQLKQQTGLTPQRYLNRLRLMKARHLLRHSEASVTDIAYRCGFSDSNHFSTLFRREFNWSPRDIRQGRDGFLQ
T2 sequence (P0ACJ8 2-210): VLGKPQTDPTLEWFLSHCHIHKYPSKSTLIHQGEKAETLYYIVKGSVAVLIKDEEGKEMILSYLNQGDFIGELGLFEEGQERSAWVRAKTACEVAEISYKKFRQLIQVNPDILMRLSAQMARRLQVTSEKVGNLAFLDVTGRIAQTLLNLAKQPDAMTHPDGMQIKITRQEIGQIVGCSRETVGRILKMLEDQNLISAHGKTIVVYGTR
T3 sequence (P03023 whole entry): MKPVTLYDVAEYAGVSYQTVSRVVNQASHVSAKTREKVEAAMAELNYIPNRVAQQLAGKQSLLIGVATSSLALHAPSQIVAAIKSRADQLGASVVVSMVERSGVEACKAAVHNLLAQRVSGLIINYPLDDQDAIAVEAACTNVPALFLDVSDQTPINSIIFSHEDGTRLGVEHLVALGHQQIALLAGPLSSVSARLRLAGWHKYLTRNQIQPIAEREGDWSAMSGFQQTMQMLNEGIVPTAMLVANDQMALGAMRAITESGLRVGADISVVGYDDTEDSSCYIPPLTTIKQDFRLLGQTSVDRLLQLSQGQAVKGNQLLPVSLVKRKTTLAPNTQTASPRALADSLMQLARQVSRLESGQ

CCCCN1C=C(c2ccc3ccccc3n2)C(C[N+](=O)[O-])c2ccccc21 (stereo not shown) [Compound 1, 1-butyl-4-(nitromethyl)-3-quinolin-2-yl-4H-quinoline]
IC50 [1]: ~70 µM | inhibition of DNA binding by RhaS-GB1^201b ([1]; EMSA, dose-dependent): fully inhibit DNA binding | CRP DNA binding retained [2]: approximately 94% | LacI DNA binding retained [3]: approximately 70%
